Laboratory results as given in PMC3348524, “Diverse Effects of Glutathione and UPF Peptides on Antioxidant Defense System in Human Erythroleukemia Cells K562” (International Journal of Peptides, 2012).
Where two headings read alike, the source gives them in different places. Numbered stars: 1 amine (or outer) side, 2 acyl side, 3 side chain; on linkers, the order of the positions; unused ones are H or OH. Bridge positions count the residues as written; N and C are the ends. Square brackets hold non-standard residues; d marks the D form. Peptide text beside a SMILES is read from it. I, II: the chains in the order shown. γGlu = O=C(O)[C@H](CCC(=O)[*:2])N[*:1]

Legend:
[1] = pKa of thiol groups, spectrophotometric titration; type: physicochemical; conditions: 50 μM peptide in phosphate buffered saline, titrated with 1 M NaOH, absorbance at 240 nm
Description: The ratio of thiol and thiolate concentrations were measured spectrophotometrically at 240 nm on a PerkinElmer Lambda 25 spectrometer similarly as previously for GSH and α-GSH [21]. 1 mL of 50 μM peptide solution in phosphate buffered saline (Calbiochem, USA) was titrated with 5 μL volumes of 1 M NaOH and pH and absorbance changes were determined after each addition. The results were corrected to consider the dilution of the assay mixture during titration.

K562 cells = system: K562 cells; design: method as in PMID 17577738, PMID 15489015; conditions: cited from earlier work
[2] = system: primary culture of cerebellar granule cells; design: method as in PMID 17577738, PMID 15489015; conditions: cited from earlier work
[3] = system: equine kidney γ-glutamyltranspeptidase; experiment: Stability towards γ-glutamyltranspeptidase (HPLC-MS); conditions: 1 mM peptide, 0.3 mg/mL equine kidney GGT, 0.1 M Tris-HCl pH 7.4, 0.1% EDTA, 6 mM Gly-Gly acceptor, 37°C, 1 h; HPLC-MS read-out
Description: 6 mM Gly-Gly was added as an acceptor for γ-Glu moiety [20]. GSH was incubated with GGT under the same conditions as the control. The samples were heat-inactivated, centrifuged at 10000 g and +4°C for 5 min, and kept on ice until analyzed. Supernatants were analyzed on a Prominence HPLC (Shimadzu, Japan) and Q-Trap 3200 (Applied Biosystems, USA) mass spectrometry tandem. Luna C18 100 × 2 mm, 3 μm column from Phenomenex was used for sample separation. Solvent A was a mixture of 99.9% water and 0.1% HCOOH, and solvent B was a mixture of 99.9% acetonitrile and 0.1% HCOOH (mass spectrometry grade, Riedel-de Haėn, Germany). Samples were eluated at a flow rate of 0.1 mL/min, gradient started with 5 min at isocratic flow of solvent A, concentration of solvent B increased up to 30% in 25 min, followed by wash with 100% solvent B in 20 min. Enhanced MS scans were performed in negative mode with rate 1000 amu/s between mass range 50–1700 Da. Ionspray voltage was set to −4500 V, declustering potential to −30 V and entrance potential to −10 V.

[4] = previous work; cited from earlier work
Excerpt: UPF1 and UPF17 have also shown different effects in free radical scavenging experiments. According to the classification of kinetic behavior by Sánches-Moreno et al., UPF17 is classified as fast and UPF1 as intermediate DPPH radical scavenger. […] This raised a question about pKa values for the thiol groups of UPF peptides. Previously, the change of γ-peptide bond to α-peptide bond has also been investigated f ...

**Q.** With COc1ccc(C[C@H](N)C(=O)N[C@@H](CCC(=O)N[C@@H](CS)C(=O)NCC(=O)O)C(=O)O)cc1 [UPF1, Tyr(Me)-γ-Glu-Cys-Gly] (H-Y(Me)[γGlu]CG-OH) as the molecule, how does the “pKa of thiol group” value [1] read?
**A.** 9.3 ± 0.1

**Q.** And the “concentration up to which nontoxic for K562 cells” value (K562 cells)?
**A.** ≤ 200 µM

**Q.** What about the “concentration up to which no toxic effect on cerebellar granule cells” value [2] of the same molecule?
**A.** up to 100 μM

**Q.** What about the “degradation by GGT” value [3] of the same molecule?
**A.** not degraded

**Q.** Which “pKa of thiol group” value [1] does the source give for N[C@@H](CCC(=O)N[C@@H](CS)C(=O)NCC(=O)O)C(=O)O [GSH, γ-L-Glu-L-Cys-Gly, reference compound] here?
**A.** 9.0 ± 0.3

**Q.** What about the “pKa of thiol group” value [4] of the same molecule?
**A.** 9.0 ± 0.1

**Q.** Which “degradation by GGT” value [3] does the source give for COc1ccc(C[C@H](N)C(=O)N[C@@H](CCC(=O)N[C@@H](CSSC[C@H](NC(=O)CC[C@H](NC(=O)[C@@H](N)Cc2ccc(OC)cc2)C(=O)O)C(=O)NCC(=O)O)C(=O)NCC(=O)O)C(=O)O)cc1 [dimerised UPF1] (I: H-Y(Me)[γGlu]CG-OH / II: H-Y(Me)[γGlu]CG-OH; disulfide I:3-II:3) here?
**A.** not detected

**Q.** With N[C@@H](CCC(=O)O)C(=O)N[C@@H](CS)C(=O)NCC(=O)O [α-GSH] (H-Glu-Cys-Gly-OH) as the molecule, how does the “pKa of thiol group” value [1] read?
**A.** 9.1 ± 0.1

**Q.** And the “pKa of thiol group” value [4]?
**A.** 9.1 ± 0.1

**Q.** Which “pKa of thiol group” value [1] does the source give for COc1ccc(C[C@H](N)C(=O)N[C@@H](CCC(=O)O)C(=O)N[C@@H](CS)C(=O)NCC(=O)O)cc1 [UPF17, Tyr(Me)-Glu-Cys-Gly] (H-Y(Me)ECG-OH) here?
**A.** 9.4 ± 0.2

**Q.** And the “concentration up to which nontoxic for K562 cells” value (K562 cells)?
**A.** ≤ 200 µM
